Among the data in US11312723B2, “Pyranopyrazole and pyrazolopyridine immunomodulators for treatment of autoimmune diseases” (The Rockefeller University, priority 2017, dated 2022) are IC50 values, retold here.

Each structure is given as a SMILES string. A value given as a limit tells only on which side of the number the result lay.

The test concerns the target Human FXIIa (Homo sapiens (Human), UniProt P00748). Briefly: Factor XIIa (FXIIa) inhibitory activity, chromogenic substrate (Pefachrome XIIa) cleavage. As to conditions: 10 min pre-incubation, Pefachrome XIIa 400 μM. Type of test: biochemical. How it is done:
Factor XIIa (FXIIa) Inhibitory Activity:
In a 96-well clear bottom plate, 80 μl of assay buffer was added to each well. Assay buffer consists of 0.5× Hank's Balanced Salt Solution (Invitrogen), buffered with 25 mM HEPES pH 7.4 (Invitrogen) and 0.5× Tris-buffered saline with Tween-20 0.05% (Santa Cruz Biotechnology). Test compounds were first dissolved in DMSO (Sigma) and then 4 μl were added to test wells containing assay buffer. Serial dilutions using an automated multi-channel pipette were used to generate a concentration range of approximately 1-100 μM. Human FXIIa (Enzyme Research Labs) was diluted in assay buffer to a final concentration of 12.5 nM. 80 μl of this enzyme solution was added to the assay wells. The enzyme/compound mixtures were incubated for 10 minutes at room temperature. Chromogenic substrate (Pefachrome XIIa; Enzyme Research Labs) was added to assay wells at a final concentration of 400 μM. The assay plate was spun for 1 minute at 1500 g and then read at 37° C. in a SpectraMax M2 plate reader (λ=405 nm). Activity was quantified as the rate of change in absorbance, which corresponds to the rate of substrate cleavage. IC50 values were determined as the concentration of inhibitor that produced 50% of the rate of change of control wells without any inhibitor. For compounds with activity <1 μM, the assay was repeated with a lower concentration range, typically from 10-1000 nM.

Chain of Human FXIIa (P00748 373-615): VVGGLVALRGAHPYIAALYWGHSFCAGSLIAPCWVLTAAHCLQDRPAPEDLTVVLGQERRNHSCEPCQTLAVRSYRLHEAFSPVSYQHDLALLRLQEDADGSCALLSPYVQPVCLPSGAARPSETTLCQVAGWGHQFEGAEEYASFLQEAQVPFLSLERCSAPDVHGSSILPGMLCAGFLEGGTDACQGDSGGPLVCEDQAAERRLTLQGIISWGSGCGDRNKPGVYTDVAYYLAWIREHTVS
Chain of Human FXIIa (P00748 20-372 partner): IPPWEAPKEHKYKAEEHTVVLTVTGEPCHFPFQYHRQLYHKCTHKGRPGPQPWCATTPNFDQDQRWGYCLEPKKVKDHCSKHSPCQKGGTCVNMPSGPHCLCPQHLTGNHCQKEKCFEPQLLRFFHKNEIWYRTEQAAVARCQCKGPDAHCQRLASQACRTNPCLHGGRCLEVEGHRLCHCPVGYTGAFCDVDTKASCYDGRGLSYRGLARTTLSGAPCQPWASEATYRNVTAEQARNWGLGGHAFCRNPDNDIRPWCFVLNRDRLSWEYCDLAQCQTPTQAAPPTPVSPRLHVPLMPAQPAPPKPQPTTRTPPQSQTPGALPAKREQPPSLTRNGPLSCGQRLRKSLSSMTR

Regarding `CCc1cc2c([nH]1)CCCC2C(=O)n1nc(N)c2c1CCN(C(=O)OCc1ccccc1)C2` (centres unmarked) [Example 5, benzyl 3-amino-1-(2-ethyl-4,5,6,7-tetrahydro-1H-indole-4-carbonyl)-6,7-dihydro-1H-pyrazolo[4,3-c]pyridine-5(4H)-carboxylate], the IC50 was > 40 µM.

In the case of `Cc1cc2c(C(=O)n3nc(N)c4c3CN(C(=O)OC(C)(C)C)CC4)cccc2[nH]1` [Example 8, tert-butyl 3-amino-1-(2-methyl-1H-indole-4-carbonyl)-4,5-dihydro-1H-pyrazolo[3,4-c]pyridine-6(7H)-carboxylate], the IC50 was determined as 50 µM. That is a double-digit micromolar value.

Regarding `Cc1cc2c(C(=O)n3nc4c(c3N)CCN(Cc3ccccc3)C4)cccc2[nH]1` [Example 10, (3-amino-6-benzyl-4,5,6,7-tetrahydropyrazolo[3,4-c]pyridin-2-yl)(2-methyl-1H-indol-4-yl)methanone], half-maximal inhibition (IC50) was put at 0.03 µM.

`Cc1cc2c(C(=O)n3nc(N)c4c3CN(Cc3ccccc3)CC4)cccc2[nH]1` [Example 11, (3-amino-6-benzyl-4,5,6,7-tetrahydropyrazolo[3,4-c]pyridin-1-yl)(2-methyl-1H-indol-4-yl)methanone]: the IC50 amounted to 50 µM.

For the compound `Cc1ccc2c(c1)C(C(=O)n1nc(N)c3c1CN(S(C)(=O)=O)CC3)CCN2` (centres unmarked) [Example 13, (3-amino-6-(methylsulfonyl)-4,5,6,7-tetrahydropyrazolo[3,4-c]pyridin-1-yl)(6-methyl-1,2,3,4-tetrahydroquinolin-4-yl)methanone], the IC50 is > 90 µM.

The compound `CS(=O)(=O)N1CCc2c(N)nn(C(=O)C3CCNc4ccc(F)cc43)c2C1` (centres unmarked) [Example 17, (3-amino-6-(methylsulfonyl)-4,5,6,7-tetrahydropyrazolo[3,4-c]pyridin-1-yl)(6-fluoro-1,2,3,4-tetrahydroquinolin-4-yl)methanone] displayed an IC50 of 30 µM.

In turn, `COc1ccc2c(c1)C(C(=O)n1nc3c(c1N)CCN(S(C)(=O)=O)C3)CCN2` (centres unmarked) [Example 22, (3-amino-6-(methylsulfonyl)-4,5,6,7-tetrahydropyrazolo[3,4-c]pyridin-2-yl)(6-methoxy-1,2,3,4-tetrahydroquinolin-4-yl)methanone] gave an IC50 of 1.4 µM. Compared with the last compound, the IC50 is about 21-fold lower.

Consider `COc1ccc2c(c1)C(C(=O)n1nc(N)c3c1CN(S(C)(=O)=O)CC3)CCN2` (centres unmarked) [Example 23, (3-amino-6-(methylsulfonyl)-4,5,6,7-tetrahydropyrazolo[3,4-c]pyridin-1-yl)(6-methoxy-1,2,3,4-tetrahydroquinolin-4-yl)methanone], for which the IC50 was > 60 µM.

In the case of `Cn1cc2c(c1)C(C(=O)n1nc(N)c3c1CN(S(C)(=O)=O)CC3)CCC2` (centres unmarked) [Example 27, (3-amino-6-(methylsulfonyl)-4,5,6,7-tetrahydropyrazolo[3,4-c]pyridin-1-yl)(2-methyl-4,5,6,7-tetrahydro-2H-isoindol-4-yl)methanone], half-maximal inhibition (IC50) required 75 µM.

With `Nc1nn(C(=O)C2CCNc3ccc(F)cc32)c2c1CCN(c1ccccc1)C2` (centres unmarked) [Example 29, (3-amino-6-phenyl-4,5,6,7-tetrahydropyrazolo[3,4-c]pyridin-1-yl)(6-fluoro-1,2,3,4-tetrahydroquinolin-4-yl)methanone], the half-maximal inhibitory concentration (IC50) was > 60 µM.

The compound `CCc1ccc2c(c1)C(C(=O)n1nc(N)c3c1CN(S(C)(=O)=O)CC3)CCN2` (centres unmarked) [Example 31, (3-amino-6-(methylsulfonyl)-4,5,6,7-tetrahydropyrazolo[3,4-c]pyridin-1-yl)(6-ethyl-1,2,3,4-tetrahydroquinolin-4-yl)methanone] returned a 50% inhibitory concentration (IC50) of 40 µM.

The compound `CS(=O)(=O)N1CCc2c(N)nn(C(=O)C3CCNc4c(F)cccc43)c2C1` (centres unmarked) [Example 38, (3-amino-6-(methylsulfonyl)-4,5,6,7-tetrahydropyrazolo[3,4-c]pyridin-1-yl)(8-fluoro-1,2,3,4-tetrahydroquinolin-4-yl)methanone] came in with an IC50 of 70 µM.

Turning to `CS(=O)(=O)N1CCc2c(N)nn(C(=O)C3CCNc4ncccc43)c2C1` (centres unmarked) [Example 42, (3-amino-6-(methylsulfonyl)-4,5,6,7-tetrahydropyrazolo[3,4-c]pyridin-1-yl)(1,2,3,4-tetrahydro-1,8-naphthyridin-4-yl)methanone], the IC50 was > 80 µM.

In the case of `CS(=O)(=O)N1CCc2c(nn(C(=O)C3CC(=O)Nc4ccc(F)cc43)c2N)C1` (centres unmarked) [Example 43, 4-(3-amino-6-(methylsulfonyl)-4,5,6,7-tetrahydro-2H-pyrazolo[3,4-c]pyridine-2-carbonyl)-6-fluoro-3,4-dihydroquinolin-2(1H)-one], the IC50 came to 4 µM. This counts as single-digit micromolar.

In the case of `CC(C)c1ccc2c(c1)C(C(=O)n1nc(N)c3c1CN(S(C)(=O)=O)CC3)CCN2` (centres unmarked) [Example 46, (3-amino-6-(methylsulfonyl)-4,5,6,7-tetrahydropyrazolo[3,4-c]pyridin-1-yl)(6-isopropyl-1,2,3,4-tetrahydroquinolin-4-yl)methanone], the IC50 was > 80 µM.

On to `CC(=O)Nc1ccc2c(c1)C(C(=O)n1nc3c(c1N)CCN(S(C)(=O)=O)C3)CCN2` (centres unmarked) [Example 47, N-(4-(3-amino-6-(methylsulfonyl)-4,5,6,7-tetrahydro-2H-pyrazolo[3,4-c]pyridine-2-carbonyl)-1,2,3,4-tetrahydroquinolin-6-yl)acetamide], for which the IC50 came out at 8.5 µM.

On to `CC(=O)Nc1ccc2c(c1)C(C(=O)n1nc(N)c3c1CN(S(C)(=O)=O)CC3)CCN2` (centres unmarked) [Example 48, N-(4-(3-amino-6-(methylsulfonyl)-4,5,6,7-tetrahydro-1H-pyrazolo[3,4-c]pyridine-1-carbonyl)-1,2,3,4-tetrahydroquinolin-6-yl)acetamide], for which the IC50 is > 30 µM.

Regarding `CS(=O)(=O)N1CCc2c(N)nn(C(=O)C3CCNc4ccc(-c5ccccc5)cc43)c2C1` (centres unmarked) [Example 50, (3-amino-6-(methylsulfonyl)-4,5,6,7-tetrahydropyrazolo[3,4-c]pyridin-1-yl)(6-phenyl-1,2,3,4-tetrahydroquinolin-4-yl)methanone], the IC50 is > 80 µM.

Compound `Cc1cc(F)cc2c1NCCC2C(=O)n1nc(N)c2c1CN(S(C)(=O)=O)CC2` (centres unmarked) [Example 52, (3-amino-6-(methylsulfonyl)-4,5,6,7-tetrahydropyrazolo[3,4-c]pyridin-1-yl)(6-fluoro-8-methyl-1,2,3,4-tetrahydroquinolin-4-yl)methanone] registered an IC50 of 32 µM.

Regarding `CCc1cc(C)c2c(c1)C(C(=O)n1nc(N)c3c1CN(S(C)(=O)=O)CC3)CCN2` (centres unmarked) [Example 56, (3-amino-6-(methylsulfonyl)-4,5,6,7-tetrahydropyrazolo[3,4-c]pyridin-1-yl)(6-ethyl-8-methyl-1,2,3,4-tetrahydroquinolin-4-yl)methanone], the IC50 was > 65 µM.

For `CS(=O)(=O)N1CCc2c(N)nn(C(=O)C3CCNc4c(Cl)cccc43)c2C1` (centres unmarked) [Example 58, (3-amino-6-(methylsulfonyl)-4,5,6,7-tetrahydropyrazolo[3,4-c]pyridin-1-yl)(8-chloro-1,2,3,4-tetrahydroquinolin-4-yl)methanone], the IC50 stood at 60 µM.

`COc1cccc2c1NCCC2C(=O)n1nc(N)c2c1CN(S(C)(=O)=O)CC2` (centres unmarked) [Example 62, (3-amino-6-(methylsulfonyl)-4,5,6,7-tetrahydropyrazolo[3,4-c]pyridin-1-yl)(8-methoxy-1,2,3,4-tetrahydroquinolin-4-yl)methanone]: the IC50 is > 65 µM.

`CCc1cccc2c1NCCC2C(=O)n1nc2c(c1N)CCN(S(C)(=O)=O)C2` (centres unmarked) [Example 65, (3-amino-6-(methylsulfonyl)-4,5,6,7-tetrahydropyrazolo[3,4-c]pyridin-2-yl)(8-ethyl-1,2,3,4-tetrahydroquinolin-4-yl)methanone] yielded an IC50 of 0.09 µM.

As to `CCc1cccc2c1NCCC2C(=O)n1nc(N)c2c1CN(S(C)(=O)=O)CC2` (centres unmarked) [Example 66, (3-amino-6-(methylsulfonyl)-4,5,6,7-tetrahydropyrazolo[3,4-c]pyridin-1-yl)(8-ethyl-1,2,3,4-tetrahydroquinolin-4-yl)methanone], the IC50 was > 100 µM.

With `CS(=O)(=O)N1CCc2c(N)nn(C(=O)C3CCNc4c3cccc4C(F)(F)F)c2C1` (centres unmarked) [Example 68, (3-amino-6-(methylsulfonyl)-4,5,6,7-tetrahydropyrazolo[3,4-c]pyridin-1-yl)(8-(trifluoromethyl)-1,2,3,4-tetrahydroquinolin-4-yl)methanone], the IC50 was > 90 µM.

On to `Nc1nn(C(=O)C2CCNc3c(Cl)cccc32)c2c1CCNC2` (centres unmarked) [Example 71, (3-amino-4,5,6,7-tetrahydropyrazolo[3,4-c]pyridin-1-yl)(8-chloro-1,2,3,4-tetrahydroquinolin-4-yl)methanone], for which 5 µM corresponded to half-maximal inhibition (IC50). In other words, the single-digit micromolar range.

`Nc1nn(C(=O)C2CCNc3ccc(F)cc32)c2c1COCC2` (centres unmarked) [Example 75, (3-amino-6,7-dihydropyrano[4,3-c]pyrazol-1(4H)-yl)(6-fluoro-1,2,3,4-tetrahydroquinolin-4-yl)methanone] returned an IC50 of 25 µM.

Compound `CN1CCc2nn(C(=O)C3CCNc4ccccc43)c(N)c2C1` (centres unmarked) [Example 86, (3-amino-5-methyl-4,5,6,7-tetrahydro-pyrazolo[4,3-c]pyridin-2-yl)(1,2,3,4-tetrahydro-quinolin-4-yl)methanone] showed an IC50 of 1.25 µM.

`COC(=O)N1CCc2c(c(N)nn2C(=O)C2CCNc3ccccc32)C1` (centres unmarked) [Example 88, methyl 3-amino-1-(1,2,3,4-tetrahydro-quinoline-4-carbonyl)-6,7-dihydro-1H-pyrazolo[4,3-c]pyridine-5(4H)-carboxylate] registered a half-inhibitory concentration (IC50) of 80 µM.

What is called IC50 is the concentration that gives 50% inhibition.
